# Experimental data reported in paper PMC7377239, “Cardiovascular Effects of Polychlorinated Biphenyls and Their Major Metabolites” (Environmental Health Perspectives, 2020).
# Where a name gives a salt, the structure may show the parent alone. Read-outs that look alike come from different tables or passages of the source.
# Columns and labels:
# HUVECs = assay: High-content imaging cytotoxicity in HUVECs, 24 h; assay type: cell-based, human; details: Homo sapiens, HUVEC, 24 h, HUVECs; for viability at 0.01 µM / activity at 0.01 µM / viability at 0.1 µM / activity at 0.1 µM / viability at 1 µM / activity at 1 µM / viability at 10 µM / activity at 10 µM / viability at 100 µM / activity at 100 µM: 0.00 µM = 100.00; for viability at 0.1 µM / activity at 0.1 µM: 0.10 µM; for minimal effective concentration: top concentration 100.00 µM
# In short: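 HUVECs (passages 1–5) grown to monolayer over 3–5 d, then exposed 24 h at 37°C, 5% CO2; stained with Hoechst 33342, MitoTracker Orange and calcein AM and imaged at 10×. Readouts normalized to 0.5% DMSO vehicle, four-parameter logistic fit; POD at one-SD cutoff, 100μM assigned when no response.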
# [1] = tested on: iCell cardiomyocytes (human iPSC-derived cardiomyocytes); assay: High-content imaging of cytotoxicity and mitochondrial integrity in iPSC-CMs; assay type: cell-based; details: Homo sapiens; for viability at 0.01 µM / activity at 0.01 µM / viability at 0.1 µM / activity at 0.1 µM / viability at 1 µM / activity at 1 µM / viability at 10 µM / activity at 10 µM / viability at 100 µM / activity at 100 µM: Cardiomyocyte, 0.00 µM = 100.00; for viability at 0.1 µM / activity at 0.1 µM: 0.10 µM; for minimal effective concentration: iPSC-CM
# In short: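 Human iPSC-derived cardiomyocytes were seeded on gelatin-coated 384-well plates at 5,000 cells per well and maintained for 12 d. Test chemicals were added as 10μL of 5× solutions to final concentrations of 0.01 to 100μM. Cells were stained with Hoechst 33342 and MitoTracker™ Orange, fixed in formaldehyde, and imaged by confocal high-content microscopy at 10× magnification.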
# [2] = 24 hr, read-out: huvec.cyto.24hr
# [3] = 24 hr, read-out: huvec.mito.24hr
# [4] = 24 hr, read-out: huvec.mitoint.24hr
# [5] = 24 hr, read-out: huvec.nma.24hr
# [6] = 24 hrs, read-out: huvec.tc.24hrs
compound,measurement,setting,value
O=S(=O)(O)Oc1ccc(-c2cccc(Cl)c2)cc1Cl [4-yl PCB 11 sulfate],viability at 0.01 µM,HUVECs; [2],97.3%
same,activity at 0.01 µM,HUVECs; [3],95.5%
same,activity at 0.01 µM,HUVECs; [4],95.8%
same,activity at 0.01 µM,HUVECs; [5],97.3%
same,viability at 0.1 µM,HUVECs; [2],86.8%
same,activity at 0.1 µM,HUVECs; [3],85.9%
same,activity at 0.1 µM,HUVECs; [4],118%
same,activity at 0.1 µM,HUVECs; [5],104%
same,viability at 1 µM,HUVECs; [2],97.8%
same,activity at 1 µM,HUVECs; [3],96.6%
same,activity at 1 µM,HUVECs; [4],99.3%
same,activity at 1 µM,HUVECs; [5],97%
same,viability at 10 µM,HUVECs; [2],108%
same,activity at 10 µM,HUVECs; [3],107%
same,activity at 10 µM,HUVECs; [4],93.5%
same,activity at 10 µM,HUVECs; [5],93.9%
same,viability at 100 µM,HUVECs; [2],58.3%
same,activity at 100 µM,HUVECs; [3],58.9%
same,activity at 100 µM,HUVECs; [4],54.2%
same,activity at 100 µM,HUVECs; [5],75.6%
same,minimal effective concentration,"HUVECs; 24 hr, read-out: huvec.cyto.24hr POD",48.8 µM
same,minimal effective concentration,"HUVECs; 24 hr, read-out: huvec.mito.24hr POD",45.1 µM
same,minimal effective concentration,"HUVECs; 24 hr, read-out: huvec.mitoint.24hr POD",10.8 µM
same,minimal effective concentration,"HUVECs; 24 hr, read-out: huvec.nma.24hr POD",2.98 µM
same,viability at 0.01 µM,HUVECs; [6],97.3%
same,viability at 0.1 µM,HUVECs; [6],86.8%
same,viability at 1 µM,HUVECs; [6],97.8%
same,viability at 10 µM,HUVECs; [6],108%
same,viability at 100 µM,HUVECs; [6],59.1%
same,minimal effective concentration,"HUVECs; 24 hrs, read-out: huvec.tc.24hrs POD",48.8 µM
same,viability at 0.01 µM,"[1]; 1.5 h, read-out: cm.cam.90min",100%
same,activity at 0.01 µM,"[1]; 1.5 h, read-out: cm.mii.90min",101%
same,activity at 0.01 µM,"[1]; 1.5 h, read-out: cm.mito.90min",99.5%
same,viability at 0.01 µM,"[1]; 1.5 h, read-out: cm.tc.90min",100%
same,viability at 0.1 µM,"[1]; 1.5 h, read-out: cm.cam.90min",99.7%
same,activity at 0.1 µM,"[1]; 1.5 h, read-out: cm.mii.90min",117%
same,activity at 0.1 µM,"[1]; 1.5 h, read-out: cm.mito.90min",99.5%
same,viability at 0.1 µM,"[1]; 1.5 h, read-out: cm.tc.90min",99.6%
same,viability at 1 µM,"[1]; 1.5 h, read-out: cm.cam.90min",101%
same,activity at 1 µM,"[1]; 1.5 h, read-out: cm.mii.90min",114%
same,activity at 1 µM,"[1]; 1.5 h, read-out: cm.mito.90min",101%
same,viability at 1 µM,"[1]; 1.5 h, read-out: cm.tc.90min",101%
same,viability at 10 µM,"[1]; 1.5 h, read-out: cm.cam.90min",98.7%
same,activity at 10 µM,"[1]; 1.5 h, read-out: cm.mii.90min",103%
same,activity at 10 µM,"[1]; 1.5 h, read-out: cm.mito.90min",98.5%
same,viability at 10 µM,"[1]; 1.5 h, read-out: cm.tc.90min",98.6%
same,viability at 100 µM,"[1]; 1.5 h, read-out: cm.cam.90min",99.5%
same,activity at 100 µM,"[1]; 1.5 h, read-out: cm.mii.90min",108%
same,activity at 100 µM,"[1]; 1.5 h, read-out: cm.mito.90min",99.1%
same,viability at 100 µM,"[1]; 1.5 h, read-out: cm.tc.90min",99.5%
same,viability at 0.01 µM,"[1]; 24 h, read-out: cm.cam.24hrs",88.6%
same,activity at 0.01 µM,"[1]; 24 h, read-out: cm.mii.24hrs",106%
same,activity at 0.01 µM,"[1]; 24 h, read-out: cm.mito.24hrs",87.2%
same,viability at 0.01 µM,"[1]; 24 h, read-out: cm.tc.24hrs",89.5%
same,viability at 0.1 µM,"[1]; 24 h, read-out: cm.cam.24hrs",101%
same,activity at 0.1 µM,"[1]; 24 h, read-out: cm.mii.24hrs",114%
same,activity at 0.1 µM,"[1]; 24 h, read-out: cm.mito.24hrs",102%
same,viability at 0.1 µM,"[1]; 24 h, read-out: cm.tc.24hrs",102%
same,viability at 1 µM,"[1]; 24 h, read-out: cm.cam.24hrs",102%
same,activity at 1 µM,"[1]; 24 h, read-out: cm.mii.24hrs",101%
same,activity at 1 µM,"[1]; 24 h, read-out: cm.mito.24hrs",101%
same,viability at 1 µM,"[1]; 24 h, read-out: cm.tc.24hrs",102%
same,viability at 10 µM,"[1]; 24 h, read-out: cm.cam.24hrs",85.6%
same,activity at 10 µM,"[1]; 24 h, read-out: cm.mii.24hrs",102%
same,activity at 10 µM,"[1]; 24 h, read-out: cm.mito.24hrs",82.8%
same,viability at 10 µM,"[1]; 24 h, read-out: cm.tc.24hrs",86.3%
same,viability at 100 µM,"[1]; 24 h, read-out: cm.cam.24hrs",10.5%
same,activity at 100 µM,"[1]; 24 h, read-out: cm.mii.24hrs",48.4%
same,activity at 100 µM,"[1]; 24 h, read-out: cm.mito.24hrs",5.02%
same,viability at 100 µM,"[1]; 24 h, read-out: cm.tc.24hrs",10.7%
same,minimal effective concentration,"[1]; 1.5 h, read-out: cm.cam.90min POD",100 µM
same,minimal effective concentration,"[1]; 1.5 h, read-out: cm.mii.90min POD",100 µM
same,minimal effective concentration,"[1]; 1.5 h, read-out: cm.mito.90min POD",100 µM
same,minimal effective concentration,"[1]; 1.5 h, read-out: cm.tc.90min POD",100 µM
same,minimal effective concentration,"[1]; 24 h, read-out: cm.cam.24hrs POD",5.91 µM
same,minimal effective concentration,"[1]; 24 h, read-out: cm.mii.24hrs POD",49.2 µM
same,minimal effective concentration,"[1]; 24 h, read-out: cm.mito.24hrs POD",7.07 µM
same,minimal effective concentration,"[1]; 24 h, read-out: cm.tc.24hrs POD",6.38 µM
